Measured values taken from patent publication US20070037870A1, “Novel substance having alpha-glucosidase inhibiting activity and food containing the same” (MORISHITA JINTAN CO., LTD., priority 2003, published 2007).

What was measured:
α-glucosidase (sucrase) = molecular target: T1, α-glucosidase (sucrase) (Rattus norvegicus, UniProt P23739); assay: Measurement of sucrase (α-glucosidase) inhibiting activity with crude enzyme from rat intestinal acetone powder; assay type: biochemical; conditions: for IC50: crude rat intestinal enzyme, sucrose substrate, 0.1 M maleate buffer pH 6.0, 37° C., 30 minutes; for α-glucosidase inhibiting activity (in words): summary of Table 1 results
T1 construct: The resulting supernatant was separated as a crude enzyme stock solution; tissue SIGMA; host or cells: rat intestine (acetone powder)
Experimental: One gram intestinal acetone powder rat (manufactured by SIGMA) was suspended in 10 mL of 0.1 M maleate buffer, pH 6.0 and then centrifuged (3,000 rpm, 4° C., 20 min.). The resulting supernatant was separated as a crude enzyme stock solution. This crude enzyme stock solution was diluted at the degree of dilution previously determined in the following control test, to prepare a crude enzyme dilution which was then used in the subsequent measurement of sucrase inhibiting activity.
A buffer solution 50 μL and 100 μL of 74 mM aqueous sucrose solution were pipetted into each test tube and pre-heated for 3 minutes in a water bath at 37° C. A diluted crude enzyme stock solution 50 μL was added to this test tube and reacted at 37° C. for 30 minutes. After the reaction was finished, 800 μL purified water was added. The mixture was further heated at 80° C. for 3 minutes thereby inactivating the enzyme to terminate the reaction. The concentration of glucose in the reaction solution was quantified by using a commercial kit/mutarotase-glucose oxidase method (Glucose CII Test Wako, manufactured by Wako Pure Chemical Industries, Ltd.).
As the test substance, the reticulanol of the present invention, and Salacinol and kotalanol for comparison, all of which were obtained in Preparative Example 2 above, were used. A solution […] of the test substance in 0.1 M maleate buffer, pH 6.0 was introduced into each test tube (concentration of the test substance: 3 to 30 μg/mL), and 100 μL of 74 mM aqueous sucrose was pipetted into each test tube and pre-heated for 3 minutes in a water bath at 37° C. The above crude enzyme dilution 50 μL was added to each test tube and reacted at 37° C. for 30 minutes. After the reaction was finished, 800 μL purified water was added to each test tube, and the mixture was further heated at 80° C. for 3 minutes thereby inactivating the enzyme to terminate the reaction.
After the reaction was terminated, the concentration of glucose in the reaction solution was quantified by using the glucose CII Test Wako (manufactured by Wako Pure Chemical Industries, Ltd.).
An aqueous sucrose solution 100 μL was mixed with 50 μL of each test substance dissolved in a maleate buffer. Purified water 800 μL was added thereto and then 50 μL crude enzyme dilution was added thereto, and immediately the mixture was heated to […] to inactivate the enzyme. Thereafter, the concentration of glucose in the reaction solution was measured by the same method as described above.
Sucrase inhibiting activity was calculated from the following equation: Sucrase inhibiting activity (%)={(Glc0−Glcx)/Glc0}×100 wherein Glcx is a value obtained by subtracting the glucose concentration in the corresponding blank test from the concentration of glucose in the test sample, and Glc0 is the glucose concentration in the corresponding control.
An inhibition curve was prepared by plotting the inhibiting activity (%) calculated by the above equation on the ordinate and the concentration of each test substance (μg/mL) on the abscissa. From this inhibition curve, 50% inhibition concentration (IC50 value) was calculated as an indicator of sucrase inhibiting activity.

α-glucosidase = conditions: compared with marketed synthetic medicine Glucobay; cited from earlier work

T1 sequence (P23739 whole entry): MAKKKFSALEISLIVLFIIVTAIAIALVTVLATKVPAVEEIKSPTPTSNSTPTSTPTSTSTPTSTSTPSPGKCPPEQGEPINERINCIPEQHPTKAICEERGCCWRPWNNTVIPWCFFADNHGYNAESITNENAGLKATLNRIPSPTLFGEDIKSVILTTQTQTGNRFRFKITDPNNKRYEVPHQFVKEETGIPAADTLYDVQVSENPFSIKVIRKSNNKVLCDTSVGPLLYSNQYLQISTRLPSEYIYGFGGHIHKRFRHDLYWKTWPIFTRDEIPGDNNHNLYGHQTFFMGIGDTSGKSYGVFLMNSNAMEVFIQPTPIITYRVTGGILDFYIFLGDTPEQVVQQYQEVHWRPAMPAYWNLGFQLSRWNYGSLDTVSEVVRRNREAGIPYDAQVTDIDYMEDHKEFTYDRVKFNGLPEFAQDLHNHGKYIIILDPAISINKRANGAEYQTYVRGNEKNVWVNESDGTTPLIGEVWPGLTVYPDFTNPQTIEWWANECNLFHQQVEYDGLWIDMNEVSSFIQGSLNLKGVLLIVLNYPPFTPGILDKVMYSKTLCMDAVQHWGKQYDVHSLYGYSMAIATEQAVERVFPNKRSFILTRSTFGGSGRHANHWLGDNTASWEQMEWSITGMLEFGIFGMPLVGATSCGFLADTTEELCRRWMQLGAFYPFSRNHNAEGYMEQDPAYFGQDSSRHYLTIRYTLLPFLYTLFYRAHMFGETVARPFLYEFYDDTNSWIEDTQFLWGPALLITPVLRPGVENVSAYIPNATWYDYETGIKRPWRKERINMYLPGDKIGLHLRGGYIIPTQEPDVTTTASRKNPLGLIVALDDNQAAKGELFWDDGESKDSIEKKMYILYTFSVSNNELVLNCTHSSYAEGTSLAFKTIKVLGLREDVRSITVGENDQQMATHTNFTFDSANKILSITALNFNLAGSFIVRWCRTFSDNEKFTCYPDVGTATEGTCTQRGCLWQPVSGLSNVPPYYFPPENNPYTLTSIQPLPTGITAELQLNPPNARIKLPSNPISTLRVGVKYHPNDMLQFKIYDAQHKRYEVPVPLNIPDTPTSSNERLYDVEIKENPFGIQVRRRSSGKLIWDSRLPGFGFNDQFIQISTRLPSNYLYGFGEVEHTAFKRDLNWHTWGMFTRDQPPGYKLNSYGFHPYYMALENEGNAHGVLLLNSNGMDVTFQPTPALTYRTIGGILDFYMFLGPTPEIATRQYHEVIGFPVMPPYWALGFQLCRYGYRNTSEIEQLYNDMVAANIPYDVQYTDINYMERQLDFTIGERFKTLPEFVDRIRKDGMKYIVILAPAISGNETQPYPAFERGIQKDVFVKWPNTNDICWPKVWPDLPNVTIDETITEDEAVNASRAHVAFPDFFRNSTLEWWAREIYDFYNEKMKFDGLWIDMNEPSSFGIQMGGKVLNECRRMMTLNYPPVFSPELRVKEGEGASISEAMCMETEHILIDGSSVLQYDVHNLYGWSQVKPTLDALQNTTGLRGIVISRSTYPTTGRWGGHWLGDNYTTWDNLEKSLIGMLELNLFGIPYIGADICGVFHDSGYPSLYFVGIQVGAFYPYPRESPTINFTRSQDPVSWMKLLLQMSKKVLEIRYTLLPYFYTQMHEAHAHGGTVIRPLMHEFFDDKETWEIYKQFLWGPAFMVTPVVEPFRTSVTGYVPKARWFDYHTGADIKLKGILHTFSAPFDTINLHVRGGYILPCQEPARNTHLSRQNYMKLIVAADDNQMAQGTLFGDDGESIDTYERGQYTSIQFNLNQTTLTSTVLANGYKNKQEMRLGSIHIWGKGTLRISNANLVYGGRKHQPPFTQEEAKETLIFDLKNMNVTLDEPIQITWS

| SMILES | α-glucosidase inhibiting activity relative to Salacinol (α-glucosidase (sucrase); compared with Salacinol) | IC50 (α-glucosidase (sucrase)) [nM] | α-glucosidase inhibiting activity (in words) (α-glucosidase (sucrase)) | α-glucosidase inhibiting activity compared with Glucobay (α-glucosidase) |
| --- | --- | --- | --- | --- |
| O=S(=O)([O-])OC(C(O)C[S+]1CC(O)C(O)C1CO)C(O)C(O)CO (stereo not drawn) [Reticulanol, reticulanol] | at least twice as high | 963 | very strong α-glucosidase inhibiting activity |  |
| O=S(=O)([O-])O[C@H](CO)[C@@H](O)C[S+]1C[C@H](O)[C@@H](O)[C@@H]1CO (stereo partly drawn) [Salacinol] |  | 2420 | very strong α-glucosidase inhibiting activity | almost equivalent |
| O=S(=O)([O-])OC(C(O)C[S+]1CC(O)C(O)C1CO)C(O)C(O)C(O)CO (stereo not drawn) [Kotalanol, kotalanol] |  | 424 | very strong α-glucosidase inhibiting activity | almost equivalent |
